Source: PubChem BioAssay AID248 (DTP/NCI, 2004)
Toxic doses and inconclusive results are not listed. Cut-off read from the data, not from the text of the source: active = T/C of 150% or more; inactive = T/C below 125%.

System: L1210 leukemia ip in BDF1 mice, survival T/C
Assay: NCI In Vivo Anticancer Drug Screen. Data for tumor model L1210 Leukemia (intraperitoneal) in B6D2F1 (BDF1) mice
Settings: endpoint: mean survival time, higher = longer survival
How it was run: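 Tumor was transplanted into mice, which were then dosed with test compound or vehicle alone. Survival was recorded for each group, and the treated figure was expressed relative to the control figure.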

[1] = dose: 100.0 mg/kg/injection, schedule: Q01DX009 (ip), vehicle: saline with Tween-80
[2] = dose: 100.0 mg/kg/injection, schedule: Q04DX003 (ip), vehicle: saline with Tween-80
[3] = dose: 200.0 mg/kg/injection, schedule: Q01DX009 (ip), vehicle: saline with Tween-80
[4] = dose: 200.0 mg/kg/injection, schedule: Q04DX003 (ip), vehicle: saline with Tween-80
[5] = dose: 400.0 mg/kg/injection, schedule: Q01DX009 (ip), vehicle: saline with Tween-80
[6] = dose: 400.0 mg/kg/injection, schedule: Q04DX003 (ip), vehicle: saline with Tween-80
[7] = dose: 100.0 mg/kg/injection, schedule: Q01DX009 (ip), vehicle: saline
[8] = dose: 200.0 mg/kg/injection, schedule: Q01DX009 (ip), vehicle: saline
[9] = dose: 400.0 mg/kg/injection, schedule: Q01DX009 (ip), vehicle: saline
[10] = dose: 100.0 mg/kg/injection, schedule: Q01DX001 (ip), vehicle: saline with Tween-80
[11] = dose: 200.0 mg/kg/injection, schedule: Q01DX001 (ip), vehicle: saline with Tween-80
[12] = dose: 400.0 mg/kg/injection, schedule: Q01DX001 (ip), vehicle: saline with Tween-80
[13] = dose: 100.0 mg/kg/injection, schedule: Q01DX009 (ip), vehicle: Klucel (hydroxypropylcellulose) (HPC)
[14] = dose: 200.0 mg/kg/injection, schedule: Q01DX009 (ip), vehicle: Klucel (hydroxypropylcellulose) (HPC)
[15] = dose: 100.0 mg/kg/injection, schedule: Q01DX001 (ip), vehicle: saline
[16] = dose: 400.0 mg/kg/injection, schedule: Q01DX001 (ip), vehicle: saline
[17] = dose: 100.0 mg/kg/injection, schedule: Q01DX001 (ip), vehicle: carboxymethylcellulose (CMC)
[18] = dose: 200.0 mg/kg/injection, schedule: Q01DX001 (ip), vehicle: carboxymethylcellulose (CMC)
[19] = dose: 400.0 mg/kg/injection, schedule: Q01DX001 (ip), vehicle: carboxymethylcellulose (CMC)
[20] = dose: 400.0 mg/kg/injection, schedule: Q01DX009 (ip), vehicle: Klucel (hydroxypropylcellulose) (HPC)
[21] = dose: 200.0 mg/kg/injection, schedule: Q01DX001 (ip), vehicle: saline
[22] = dose: 20.0 mg/kg/injection, schedule: Q04DX003 (ip), vehicle: Klucel (hydroxypropylcellulose) (HPC)
[23] = dose: 40.0 mg/kg/injection, schedule: Q04DX003 (ip), vehicle: Klucel (hydroxypropylcellulose) (HPC)

Measured: T/C

O=c1[nH]c(=O)n2n1CC(Br)C(Br)C2 (stereo not given)
inactive: [1] 94 % of control | [2] 106 % of control | [3] 96 % of control | [4] 110 % of control | [5] 100 % of control | [6] 94 % of control

OCC1OC(O)C(O)C(O)C1O (stereo not given)
inactive: [7] 96 % of control | [8] 98 % of control | [9] 107 % of control | dose: 500.0 mg/kg/injection, schedule: Q01DX009 (ip), vehicle: saline 93 % of control | dose: 500.0 mg/kg/injection, schedule: Q04DX003 (ip), vehicle: saline 96 % of control | dose: 1000.0 mg/kg/injection, schedule: Q01DX009 (ip), vehicle: saline 90 % of control | dose: 1000.0 mg/kg/injection, schedule: Q04DX003 (ip), vehicle: saline 96 % of control | dose: 2000.0 mg/kg/injection, schedule: Q01DX009 (ip), vehicle: saline 106 % of control | dose: 2000.0 mg/kg/injection, schedule: Q04DX003 (ip), vehicle: saline 93 % of control | dose: 4000.0 mg/kg/injection, schedule: Q01DX009 (ip), vehicle: saline 102 % of control | dose: 4000.0 mg/kg/injection, schedule: Q04DX003 (ip), vehicle: saline 94 % of control

CC(C)(C)[Se]C(=N)N
inactive: dose: 18.8 mg/kg/injection, schedule: Q01DX001 (ip), vehicle: saline with Tween-80 101 % of control | dose: 37.5 mg/kg/injection, schedule: Q01DX001 (ip), vehicle: saline with Tween-80 100 % of control | dose: 50.0 mg/kg/injection, schedule: Q01DX001 (ip), vehicle: saline with Tween-80 107 % of control | dose: 75.0 mg/kg/injection, schedule: Q01DX001 (ip), vehicle: saline with Tween-80 95 % of control

C/C(=C\C(=O)O)c1ccc(-c2ccccc2)cc1
inactive: [10] 96 % of control | [11] 100 % of control | [12] 102 % of control

S=P(Nc1ccccc1)(Nc1ccccc1)Nc1ccccc1
inactive: dose: 50.0 mg/kg/injection, schedule: Q01DX009 (ip), vehicle: Klucel (hydroxypropylcellulose) (HPC) 96 % of control | [13] 98 % of control | [14] 98 % of control

N=C(N)N=Nc1c(O)[nH]c(=O)[nH]c1=O
inactive: dose: 15.0 mg/kg/injection, schedule: Q01DX Z (ip), vehicle: carboxymethylcellulose (CMC) 98 % of control | dose: 30.0 mg/kg/injection, schedule: Q01DX Z (ip), vehicle: carboxymethylcellulose (CMC) 98 % of control | dose: 60.0 mg/kg/injection, schedule: Q01DX Z (ip), vehicle: carboxymethylcellulose (CMC) 93 % of control | dose: 60.0 mg/kg/injection, schedule: Q01DX Z (oral), vehicle: carboxymethylcellulose (CMC) 110 % of control | dose: 120.0 mg/kg/injection, schedule: Q01DX Z (ip), vehicle: carboxymethylcellulose (CMC) 97 % of control | dose: 120.0 mg/kg/injection, schedule: Q01DX Z (oral), vehicle: carboxymethylcellulose (CMC) 108 % of control | dose: 240.0 mg/kg/injection, schedule: Q01DX Z (oral), vehicle: carboxymethylcellulose (CMC) 104 % of control | dose: 480.0 mg/kg/injection, schedule: Q01DX Z (oral), vehicle: carboxymethylcellulose (CMC) 108 % of control

COC(=O)C1=CO[C@@H](C)[C@@H]2Cn3ccc4c5ccccc5nc-4c3C[C@H]12
inactive: [15] 109 % of control | [16] 95 % of control

O=C(OC1COC(n2c(=O)oc3ccc(F)cc32)C(OC(=O)c2ccccc2)C1OC(=O)c1ccccc1)c1ccccc1 (stereo not given)
inactive: [17] 91 % of control | [13] 94 % of control | [18] 89 % of control | [14] 89 % of control | [19] 89 % of control | [20] 87 % of control

NC(=O)C(CCO)n1ccc(N)nc1=O (stereo not given)
inactive: [15] 94 % of control | [21] 98 % of control | [16] 102 % of control

CCC(=O)OC1(c2ccccc2)CCN(CCC(O)c2ccccc2)CC1C (stereo not given)
inactive: [22] 105 % of control | [23] 105 % of control

O=C(CCC(=O)c1ccccc1)c1ccccc1
inactive: [10] 100 % of control | [11] 98 % of control | [12] 95 % of control

Cc1cc(OC(=O)Nc2ccc(Cl)c(Cl)c2)ccc1Cl
inactive: [13] 102 % of control | dose: 100.0 mg/kg/injection, schedule: Q04DX003 (ip), vehicle: Klucel (hydroxypropylcellulose) (HPC) 96 % of control | [14] 98 % of control | dose: 200.0 mg/kg/injection, schedule: Q04DX003 (ip), vehicle: Klucel (hydroxypropylcellulose) (HPC) 104 % of control | [20] 95 % of control | dose: 400.0 mg/kg/injection, schedule: Q04DX003 (ip), vehicle: Klucel (hydroxypropylcellulose) (HPC) 101 % of control

NC(=O)c1cc([N+](=O)[O-])c(Cl)c([N+](=O)[O-])c1
inactive: [22] 97 % of control | [23] 97 % of control | dose: 80.0 mg/kg/injection, schedule: Q04DX003 (ip), vehicle: Klucel (hydroxypropylcellulose) (HPC) 103 % of control

CCCCC(=O)N/N=C\c1cc(Cl)ccc1[N+](=O)[O-]
inactive: [17] 96 % of control | [18] 91 % of control | [19] 96 % of control

O=c1c2ccccc2c(-c2ccccc2)nn1Cc1ccccc1
inactive: [1] 93 % of control | [3] 102 % of control | [5] 104 % of control

CC12CCCCC1CC/C(=C\c1ccco1)C2=O (stereo not given)
inactive: [7] 98 % of control | dose: 100.0 mg/kg/injection, schedule: Q04DX003 (ip), vehicle: saline 97 % of control | [8] 98 % of control | dose: 200.0 mg/kg/injection, schedule: Q04DX003 (ip), vehicle: saline 100 % of control | [9] 95 % of control | dose: 400.0 mg/kg/injection, schedule: Q04DX003 (ip), vehicle: saline 100 % of control

C=C/C=C/CC=C
inactive: [15] 107 % of control | [21] 107 % of control | [16] 109 % of control

O=C(O)C1C2CC3OC(=O)C1C3C2O (stereo not given)
inactive: [7] 103 % of control | [2] 96 % of control | [8] 94 % of control | [4] 86 % of control | [9] 100 % of control | [6] 86 % of control

O=S(=O)(F)c1cc(Cl)cc(Cl)c1O
inactive: dose: 100.0 mg/kg/injection, schedule: Q04DX002 (ip), vehicle: other 93 % of control | dose: 200.0 mg/kg/injection, schedule: Q04DX002 (ip), vehicle: other 93 % of control | dose: 400.0 mg/kg/injection, schedule: Q04DX002 (ip), vehicle: other 104 % of control

Cc1cn(CC(C)C)c(=O)n(-c2ccccc2)c1=O
inactive: dose: 100.0 mg/kg/injection, schedule: Q01DX Z (ip), vehicle: methylcellulose (MC) 95 % of control
